Drawing on ChEMBL document CHEMBL1133386, “Synthesis and antitumor activities of 5-methyl-1- and 2-[[2-dimethylaminoethyl]amino]-aza-thiopyranoindazoles” (Bioorg Med Chem Lett, 2000), this text covers Resistance index and IC50 for 9 compounds.

A short description of assay [1]: Resistance index was determined by ratio of cytotoxicities of human colon adenocarcinoma (LoVo) cells to human colon adenocarcinoma resistant to doxorubicin (LoVo Dx) cells. It is filed as functional.
In assay [2] the test system is L1210. In words: In vitro cytotoxic activity against murine leukemia L1210 cells. In kind it is functional, cell-based. The note with it: Mus musculus.
The subject of assay [3] is LoVo. In words: In vitro cytotoxic activity against human colon adenocarcinoma resistant to doxorubicin (LoVo Dx) cells. In kind it is functional, cell-based.
The test system of assay [4] is LoVo. In words: In vitro cytotoxic activity against human colon adenocarcinoma (LoVo) cells. It is filed as functional, cell-based.
A short description of assay [5]: In vitro cytotoxic activity against sarcoma resistant to doxorubicin S-180 Dx cells. The settings on record: Mus musculus. In kind it is functional, cell-based.
Assay [6] can be described thus: In vitro cytotoxic activity against sarcoma S-180 cells. In kind it is functional, cell-based. The note with it: Mus musculus.
The subject of assay [7] is LoVo. Nature of the assay: In vitro cytotoxic activity against human colon adenocarcinoma resistant to doxorubicin (LoVo Dx) cells. It is filed as functional, cell-based.
Assay [8] concerns LoVo. In words: In vitro cytotoxic activity against human colon adenocarcinoma (LoVo) cells. In kind it is functional, cell-based.

SMILES strings stand for the structures. Values after ≈ are worked out from the molar mass of the structure shown.

For the compound `Cc1ccc2c3c(nn2CCN(C)C)-c2ccccc2Sc13`, the Resistance index in assay [1] is 2.4. In addition, the results for the IC50 in assay [2], in assay [3] and in assay [4] were 0.07 µg/mL (≈ 0.226 µM), 1.7 µg/mL (≈ 5.49 µM) and 0.7 µg/mL (≈ 2.26 µM), respectively.
In the case of `Cc1ccc2nn(CCN(C)C)c3c2c1Sc1cnccc1-3`, the IC50 (commonly the concentration that gives 50% inhibition) in assay [2] is 0.25 µg/mL (≈ 0.805 µM); in assay [5], 0.4 µg/mL (≈ 1.29 µM); in assay [6] it was 0.35 µg/mL (≈ 1.13 µM).
`Cc1ccc2c3c(nn2CCN(C)C)-c2cccnc2Sc13`: the IC50 turned out to be 3.3 µg/mL (≈ 10.6 µM) in assay [7]; 0.08 µg/mL (≈ 0.258 µM) in assay [2]; 0.62 µg/mL (≈ 2 µM) in assay [5]; 0.46 µg/mL (≈ 1.48 µM) in assay [6]; 3.1 µg/mL (≈ 9.99 µM) in assay [8]. Moreover, the Resistance index in assay [1] amounted to 1.1.
For the compound `Cc1ccc2c3c(nn2CCN(C)C)-c2ccncc2Sc13`, the IC50 in assay [7] turned out to be 2.3 µg/mL (≈ 7.41 µM); in assay [2] it was 0.045 µg/mL (≈ 0.145 µM); in assay [5], 0.7 µg/mL (≈ 2.25 µM); in assay [6] it was 0.08 µg/mL (≈ 0.258 µM); in assay [8], 2.3 µg/mL (≈ 7.41 µM). Further, the Resistance index in assay [1] is 1.
As for `Cc1ccc2nn(CCN(C)C)c3c2c1Sc1ncccc1-3`, the values for the IC50 in assay [2], in assay [5] and in assay [6] were 0.26 µg/mL (≈ 0.838 µM), 0.33 µg/mL (≈ 1.06 µM) and 0.3 µg/mL (≈ 0.966 µM), respectively.
In the case of `Cc1ccc2c3c(nn2CCN(C)C)-c2cnccc2Sc13`, the half-inhibitory concentration (IC50) in assay [7] worked out at 0.018 µg/mL (≈ 0.058 µM); in assay [2], 0.0006 µg/mL (≈ 0.00193 µM); in assay [5], 0.009 µg/mL (≈ 0.029 µM); in assay [6], 0.003 µg/mL (≈ 0.00966 µM); in assay [8], 0.004 µg/mL (≈ 0.0129 µM). The Resistance index in assay [1] was found to be 4.5.
Take `Cc1ccc2nn(CCN(C)C)c3c2c1Sc1ccccc1-3`: the values for the IC50 in assay [2], in assay [5] and in assay [6] were 0.25 µg/mL (≈ 0.808 µM), 0.75 µg/mL (≈ 2.42 µM) and 0.5 µg/mL (≈ 1.62 µM), respectively.
As for `COc1cccc2c1C(=O)c1c(O)c3c(c(O)c1C2=O)C[C@@](O)(C(=O)CO)C[C@@H]3O[C@H]1C[C@H](N)[C@H](O)[C@H](C)O1` [DOXORUBICIN], the Resistance index in assay [1] was found to be 97. The compound further had an IC50 in assay [4] of 0.52 µg/mL (≈ 0.957 µM).
For the compound `O=C1c2c(O)ccc(O)c2C(=O)c2c(NCCNCCO)ccc(NCCNCCO)c21` [MITOXANTRONE], the results for the IC50 in assay [7] and in assay [4] were 0.62 µg/mL (≈ 1.39 µM) and 0.023 µg/mL (≈ 0.0517 µM), respectively. Besides, the Resistance index in assay [1] is given as 27.
